{"source": "patent US20120214760A1", "about": "“TREATMENT OF URINARY TRACT INFECTIONS WITH ANTIBACTERIAL AMINOGLYCOSIDE COMPOUNDS” (Achaogen, Inc., priority 2009, published 2012)", "key": {"Pathogens (169 in total)": {"system": "Pathogens (169 in total)", "assay": "Susceptibility testing, all urinary tract infection isolates", "assay_type": "cell-based", "conditions": "all isolates", "protocol": "(§1) Minimum inhibitory concentrations (MIC) were determined by reference Clinical and Laboratory Standards Institute (CLSI) broth microdilution methods per M7-A7 [2006]. Quality control ranges utilizing E. coli ATCC 25922, P. aeruginosa ATCC 27853 and S. aureus ATCC 29213, and interpretive criteria for comparator agents were as published in CLSI M100-S17 [2007]. Briefly, serial two-fold dilutions of the test compounds were prepared at 2× concentration in Mueller Hinton Broth. The compound dilutions were mixed in 96-well assay plates in a 1:1 ratio with bacterial inoculum. The inoculum was prepared by suspension of a colony from an agar plate that was prepared the previous day. Bacteria were suspended in sterile saline and added to each assay plate to obtain a final concentration of 5×10^5 CFU/mL. The plates were incubated at 35° C. for 20 hours in ambient air.\nIn order to determine the activity of representative antibacterial aminoglycoside compounds against bacterial species that commonly cause complicated urinary tract infections worldwide, isolates were collected from 47 medical centers in the U.S. and Europe (10 countries) from urine or blood culture with the source of bacteremia documented as a urinary tract infection. Strains were susceptibility tested against Example 1, gentamicin, amikacin and 10 comparators by CLSI broth microdilution. These MIC assays were conducted following the same protocol as set forth in Example 110. Pathogens (169 in total) included E. coli, Klebsiella spp., Enterobacter spp., Citrobacter spp., P. mirabilis, M. Morganii, P. aeruginosa, S. aureus and S. saprophyticus."}, "[1]": {"system": "K. pneumoniae AKPN 1109, KPC", "assay": "Murine neutropenic thigh model", "assay_type": "in vivo", "protocol": "Activity is presented as the log10 difference in CFU/thigh after 24 hours of antibiotic treatment compared to CFU/thigh just prior to antibiotic treatment (2 hours post-infection). Total dose per 24 hours is shown; dosing was q12 hours. 6 mice per group, Inoculum=8.3×10^5 CFU.\n(§2) The in vivo activity of Example 1 in the mouse neutropenic thigh model (Andes and Craig. Antimicrob Agents Chemother. 2002, 46:1665-1670) was determined against seven bacterial strains including susceptible Escherichia coli and Klebsiella pneumoniae; multi-drug resistant (MDR) clinical isolates of E. coli and K. pneumoniae that display resistance to multiple antibiotics (including AGs); MRSA; and two K. pneumoniae carbapenemases (KPC)-expressing strains (see Table 5). For this efficacy model, groups of six CD-1 mice were rendered neutropenic by two intraperitoneal injections of cyclophosphamide. The first injection was 150 mg/kg three days prior to infection (day −4), and the second injection was 100 mg/kg one day prior to infection (day −1). On study day 0, animals were inoculated intramuscularly (0.1 ml) with a known number of colony forming units (CFU) of the specified bacterial strain (ATCC 25922, AECO 1003, ATCC 43816, AKPN 1073, AKPN 1109, ATCC 33591 or ASMA 1030), tailored to the virulence of each strain in the model to maximize bacterial load while avoiding mortality in the untreated control arms. Antibiotics were administered via subcutaneous injection at 2 and 14 hours after bacterial challenge. At 26 hours, infected thigh tissue was harvested, homogenized, and plated to count CFU. Untreated control animals were harvested at 2 hours post-infection to assess the initial bacterial load and at 26 hours post-infection to measure growth in the absence of antibiotic treatment."}, "[2]": {"system": "S. aureus ATCC 33591, MRSA", "assay": "Murine neutropenic thigh model", "assay_type": "in vivo", "protocol": "FIG. 4 is a line graph showing dose-responses of Example 1, arbekacin, gentamicin, vancomycin, and daptomycin in a murine neutropenic thigh model against an MRSA (ATCC 33591). Activity is presented as the log10 difference in CFU/thigh after 24 hours of antibiotic treatment compared to CFU/thigh just prior to antibiotic treatment (2 hours post-infection). Total dose per 24 hours is shown; dosing was q12 hours. 6 mice per group, Inoculum=1.2×10^3 CFU.\nas §2"}, "[3]": {"system": "S. aureus ATCC 33591, MRSA", "assay": "MIC of thigh model strain", "assay_type": "cell-based", "conditions": "Staphylococcus aureus; Table 5; S. aureus MRSA ATCC 33591; read-out: MIC", "protocol": "as §1"}, "[4]": {"system": "A. calcoaceticus AACA005, AAC(6′)-I", "assay": "MIC, aminoglycoside resistant strain", "assay_type": "cell-based", "conditions": "Table 3", "protocol": "as §1\n(§3) These MIC assays were conducted following the same protocol as set forth in Example 110. As shown, substituted sisomicin derivatives with groups other than methyl at the 6′-position have improved activity against strains expressing the AAC6′-modifying enzymes."}, "[5]": {"system": "E. coli AECO040, AAC(6′)-I", "assay": "MIC, aminoglycoside resistant strain", "assay_type": "cell-based", "conditions": "Table 3", "protocol": "as §1, §3"}, "[6]": {"system": "S. marcescens ASMA003, ANT(2″) + AAC(6′)", "assay": "MIC, aminoglycoside resistant strain", "assay_type": "cell-based", "conditions": "Table 3", "protocol": "as §1, §3"}, "E. coli AECO 1003, MDR": {"system": "E. coli AECO 1003, MDR", "assay": "Murine neutropenic thigh model", "assay_type": "in vivo", "protocol": "Activity is presented as the log10 difference in CFU/thigh after 24 hours of antibiotic treatment compared to CFU/thigh just prior to antibiotic treatment (2 hours post-infection). Total dose per 24 hours is shown; dosing was q12 hours. 6 mice per group. Inoculum=1.5×10^3 CFU.\nas §2"}, "[7]": {"system": "E. coli ATCC 25922 (AECO001)", "assay": "MIC, CLSI broth microdilution", "assay_type": "cell-based", "conditions": "for MIC: Escherichia coli", "in_short": "(§4)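 MICs were read after 20 hours at 35° C in ambient air, with a final inoculum of 5×10^5 CFU/mL from saline-suspended overnight colonies. Serial two-fold dilutions in Mueller Hinton Broth followed the CLSI reference method (M7-A7), with QC strains E. coli ATCC 25922, P. aeruginosa ATCC 27853 and S. aureus ATCC 29213.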"}, "[8]": {"system": "P. aeruginosa ATCC 27853 (APAE001)", "assay": "MIC, CLSI broth microdilution", "assay_type": "cell-based", "conditions": "Pseudomonas aeruginosa, ATCC27853; Table 2; read-out: MIC P. aeruginosa", "in_short": "as §4"}, "seven bacterial strains": {"system": "seven bacterial strains", "assay": "Murine neutropenic thigh model, all strains", "assay_type": "in vivo", "protocol": "as §2, with “Untreated control animals were harvested at 2 hours post-infection to assess the initial bacterial load and at 26 hours post-infection to measure growth in the absence of antibiotic treatment.” left out"}, "[9]": {"system": "K. pneumoniae ATCC 43816, Susceptible", "assay": "Murine neutropenic thigh model", "assay_type": "in vivo", "protocol": "as §2"}, "[10]": {"system": "S. marcescens ASMA 1030, KPC", "assay": "Murine neutropenic thigh model", "assay_type": "in vivo", "protocol": "as §2"}, "[11]": {"system": "E. coli ATCC 25922, Susceptible", "assay": "Murine neutropenic thigh model", "assay_type": "in vivo", "protocol": "as §2"}}, "note": "Where two headings read alike, the source gives them in different places.", "data": [{"smiles": "CN[C@@H]1[C@@H](O)[C@@H](O[C@@H]2[C@@H](O)[C@H](O[C@H]3OC(CNCCO)=CC[C@H]3N)[C@@H](N)C[C@H]2NC(=O)[C@@H](O)CCN)OC[C@]1(C)O", "note": "[Example 1, 6′-(2-Hydroxy-ethyl)-1-(4-amino-2(S)-hydroxy-butyryl)-sisomicin]", "values": [{"measurement": "% of strains inhibited", "setting": "Pathogens (169 in total); at ≦4 μg/ml", "value": 90.5, "unit": "%"}, {"measurement": "% of strains inhibited", "setting": "Pathogens (169 in total); at ≦16 μg/ml", "value": 98.8, "unit": "%"}, {"measurement": "ED50/MIC", "setting": "[1]; K. pneumoniae AKPN 1109", "value": "18-37"}, {"measurement": "ED50", "setting": "[1]; Klebsiella pneumoniae, sc, neutropenic CD-1 mice, subcutaneous at 2 and 14 hours, K. pneumoniae AKPN 1109", "value": 9.2, "unit": "mg/kg"}, {"measurement": "bacterial load after 24 hours of treatment versus initial bacterial load at 2 hours post-inoculation", "setting": "[1]; highest test dosage, challenge 8.3×10^5 CFU AKPN 1109, FIG. 3", "value": "reduced back to the level of the initial bacterial load"}, {"measurement": "ED50/MIC", "setting": "[2]; S. aureus ATCC 33591", "value": "4.8-9.7"}, {"measurement": "ED50", "setting": "[2]; Staphylococcus aureus, sc, neutropenic CD-1 mice, subcutaneous at 2 and 14 hours, S. aureus ATCC 33591", "value": 38.7, "unit": "mg/kg"}, {"measurement": "bacterial load after 24 hours of treatment versus initial bacterial load at 2 hours post-inoculation", "setting": "[2]; two highest dosages, challenge 1.2×10^3 CFU ATCC 33591, FIG. 4", "value": "reduced to below the initial bacterial load"}, {"measurement": "MIC", "setting": "[3]", "value": "4 to 8", "unit": "µg/mL"}, {"measurement": "MIC AACA005", "setting": "[4]", "value": 2, "unit": "µg/mL"}, {"measurement": "MIC AECO040", "setting": "[5]", "value": 0.5, "unit": "µg/mL"}, {"measurement": "MIC ASMA003", "setting": "[6]", "value": 2, "unit": "µg/mL"}, {"measurement": "ED50/MIC", "setting": "E. coli AECO 1003, MDR; E. coli AECO 1003", "value": 14.6}, {"measurement": "ED50", "setting": "E. coli AECO 1003, MDR; Escherichia coli, sc, neutropenic CD-1 mice, subcutaneous at 2 and 14 hours, E. coli AECO 1003", "value": 14.6, "unit": "mg/kg"}, {"measurement": "bacterial titer after 24 hours of treatment versus initial bacterial load at 2 hours post-inoculation", "setting": "E. coli AECO 1003, MDR; highest dosage, challenge 1.5×10^3 CFU AECO 1003, FIG. 1", "value": "reduced to below the initial bacterial load"}, {"measurement": "MIC", "setting": "[7]; ATCC25922, Table 2, read-out: MIC E. coli", "value": "< 1", "unit": "µg/mL"}, {"measurement": "MIC", "setting": "[7]; ATCC25922, Table 5, E. coli Susceptible ATCC 25922, read-out: MIC", "value": 1, "unit": "µg/mL"}, {"measurement": "MIC", "setting": "[7]; Table 1, AECO001 is ATCC25922, read-out: MIC AECO001", "value": "< 1", "unit": "µg/mL"}, {"measurement": "MIC AECO001", "setting": "[7]; Table 3, ATCC25922", "value": 0.5, "unit": "µg/mL"}, {"measurement": "MIC", "setting": "[8]", "value": "1 to 16", "unit": "µg/mL"}, {"measurement": "bacterial titers versus initial bacterial load (static level)", "setting": "seven bacterial strains; all 7 strains", "value": "reducing bacterial titers back to or below the initial bacterial load"}, {"measurement": "in vivo efficacy in words", "setting": "seven bacterial strains; gentamicin resistant strains", "value": "efficacious"}, {"measurement": "ED50/MIC", "setting": "[9]", "value": 7.4}, {"measurement": "ED50", "setting": "[9]; Klebsiella pneumoniae, ATCC43816, sc, neutropenic CD-1 mice, subcutaneous at 2 and 14 hours", "value": 3.7, "unit": "mg/kg"}, {"measurement": "ED50/MIC", "setting": "[10]", "value": 16.5}, {"measurement": "ED50", "setting": "[10]; Serratia marcescens, sc, neutropenic CD-1 mice, subcutaneous at 2 and 14 hours", "value": 16.5, "unit": "mg/kg"}, {"measurement": "ED50/MIC", "setting": "[11]", "value": 8.4}, {"measurement": "ED50", "setting": "[11]; Escherichia coli, ATCC25922, sc, neutropenic CD-1 mice, subcutaneous at 2 and 14 hours", "value": 8.4, "unit": "mg/kg"}]}]}
